Laboratory results reported in patent US8048889B2, “3,4-disubstituted coumarin and quinolone compounds” (XTL Biopharmaceuticals Ltd., priority 2005, dated 2011).

Tests used:
[1] = test system: HCV Replicon (HCV IRES driven luciferase reporter in Huh-Luc-Neo cells); test: HCV Replicon Luciferase Assay; type: cell-based; details: Hepatitis C virus, 48 h, no unit in table, hit threshold in μM
Procedure: (§1) The identification of inhibitors of HCV replication and/or proliferation has been facilitated by the development of a cell based system to study HCV replication and assay for HCV inhibitors. Inhibition of HCV replication may be performed using the HCV Replicon Assay developed in the laboratories of Bartenschlager (Lohman et al, Science 285, 110-113, 1999) and Rice (Blight et al, Science 290, 1972-1974, 2000). The assay is performed using the Huh-Luc-Neo cell line (Lohman et al, Science 285, 110-113, 1999). Huh-Luc-Neo cells are a human hepatoma cell line (Huh-7) stably expressing a bi-cistronic subgenomic replicon containing the HCV IRES in which the structural proteins of HCV had been deleted and replaced by a construct containing sequences coding for the firefly luciferase reporter gene, the neomycin selectable marker and the EMCV IRES to direct expression of a truncated HCV genome expressing the […] NS3, NS4A, NS4B, NS5A, and NS5B. HCV targets through which inhibitors could act to inhibit replication include the NS3 protease, the helicase/ATPase, NS5A, the NS5B- RNA dependent RNA polymerase, and the HCV IRES.
(§2) Expression of HCV IRES driven luciferase reporter activity and HCV RNA is measured to obtain indirect and direct measures of replication of HCV RNA respectively. Inhibitors of HCV replication and/or proliferation are determined by initially identifying molecules that inhibit expression of the HCV IRES driven luciferase reporter in this HCV Replicon Luciferase Assay. Cell viability assays and control cell based luciferase assays are then run on hits identified in the HCV Replicon Luciferase Assay to eliminate cytoxic compounds and non-specific compounds which act by inhibiting the luciferase enzyme.
(§3) Day 0 Cell Seeding and Compound Treatment: Huh-Luc-Neo Cells are seeded at 25,000/well in an opaque-walled 96 plate with Growth Medium (DMEM phenol red free+PS+2 mM glutamine; 100 μl/well). The compounds to be tested are added to the experimental wells (10 μl/well at 10× assay concentration) and the cells are then incubated (5% CO2, 37° C.) for 48 h.
(§4) Day 2 Reagent Preparation and Luciferase Assay: The Bright-Glo Luciferase Assay Buffer (Promega) is thawed and equilibrated to room temperature prior to use. The lyophilized Bright-Glo Luciferase Assay Substrate is equilibrated to room temperature prior to use. 10 ml of Bright-Glo Luciferase Assay Buffer is transferred to 1 vial of Bright-Glo Luciferase Assay Substrate bottle and mixed by gently with a Vortex. 100 ul of Bright-Glo Luciferase Assay reagent (Bright-Glo Luciferase Assay Buffer+Bright-Glo Luciferase Assay Substrate Mixture) is added to each well. The well contents are mixed for 5 min. on an orbital shaker at room temperature to induce cell lysis and the luminescence is then measured using a luminometer. The data is analyzed and IC50s are determined using GraphPad Prism 4 software. Hits validated in the Replicon Luciferase assay have IC50s<8.0 μM and show<30% inhibition of Cell Viability at a compound concentration of 100 μM (Cell Titer Glow Assay, cell viability assay conditions identical to HCV Replicon Luciferase Assay conditions).

[2] = test system: HCV Replicon (HCV RNA in Huh-Luc-Neo cells); test: HCV Replicon RNA Assay (Taqman); type: cell-based, Hepatitis C virus; details: Hepatitis C virus, compound added day 0 and day 1, no unit in table, hit threshold in μM
Procedure: as §1, §2
as §3, with “Day 0,” for “Day 0”, “37° C.).” for “37° C.) for 48 h.”
Day 1, Media Change and Compound Treatment: 24 hours after the initial compound treatment the cell culture media is aspirated from the wells and fresh Growth Medium is added (DMEM phenol red free+PS+2 mM glutamine; 100 μl/well). The compounds to be tested are then added to the appropriate experimental wells (10 μl/well at 10 × assay concentration) and the cells are then incubated (5% CO2, 37° C.) for an additional 24 hrs.
Day 2, RNA Isolation and cDNA Synthesis: The cells are washed with 1× Phosphate Buffered Saline (PBS) once.
(§5) Day 3, Quantitative PCR Based Measurement of HCV RNA (Taqman Assay): Quantitative PCR analysis to measure HCV RNA expression from cDNA synthesized on Day 2 is performed using the ABI 9700 HT Sequence Detection System (Applied Biosystems) as previously described (Lohman et al, Science 285, 110-113, 1999). The data is analyzed and IC50s are determined using GraphPad Prism 4 software. Hits validated in the Replicon RNA Assay have IC50s<8.0 μM and show <30% inhibition of Cell Viability at a compound concentration of 50 μM (Cell Titer Glow Assay, cell viability assay conditions identical to HCV Replicon RNA Assay conditions).

Huh-Luc-Neo cells = test: CellTiter-Glo Cell Viability Assay; type: cell-based, human; details: for Toxicity % Inhibition at 50 uM (2 doses): inhibition of cell viability at 50 uM, conditions as in Replicon RNA Assay; for Toxicity % Inhibition at 100 um (1 dose): inhibition of cell viability at 100 um, conditions as in Replicon Luciferase Assay (48 h)
Procedure: as §4, §5
as §3, with “Day 0,” for “Day 0”, “100 ul/well).” for “100 μl/well).”, “tested for inhibition of cell viability” for “tested”
Day 2, Reagent Preparation and Assay: The CellTiter-Glo Buffer is thawed and equilibrated to room temperature prior to use. The lyophilized CellTiter-Glo Substrate is equilibrated to room temperature prior to use. 10 ml of CeliTiter-Glo Buffer is transferred to 1 vial of CellTiter-Glo Substrate and mixed by gently with a Vortex. 100 μl of CellTiter-Glo Assay reagent (CellTiter-Glo Buffer+CellTiter-Glo Substrate Mixture) is added to each well. The well contents are mixed for 5 min. on an orbital shaker at room temperature to induce cell lysis and the luminescence is then measured using a luminometer.

Compound | IC50 [1] [µM] | IC50 [2] [µM] | Toxicity % Inhibition at 50 uM (2 doses) (Huh-Luc-Neo cells) [%] | Toxicity % Inhibition at 100 um (1 dose) (Huh-Luc-Neo cells) [%]
COc1ccc(Nc2c(/C=N/c3ccc(C)cc3)c(=O)oc3ccccc23)cc1 [VQ_36472] | 0.03 | 0.85 | 6.5 | 5.9
COc1ccc(/N=C/c2c(Nc3ccc(OC)cc3)c3ccccc3oc2=O)cc1 [VQ_36473] | 0.02 | 1.71 | 10.7 | 4.3
COc1ccc(Nc2c(/C=N/c3cc(Cl)cc(Cl)c3)c(=O)oc3ccccc23)cc1 [VQ_36594] | 0.74 | > 30 | 13.7 | 9.1
